Results reported in article PMC8546421, “Molecular modelling of the FOXO4-TP53 interaction to design senolytic peptides for the elimination of senescent cancer cells” (EBioMedicine, 2021).
Entries after “also recorded” stand apart in the source; their conditions may differ. Where two headings read alike, the source gives them in different places. Where no end group is shown, it is not given here.

Experiments:
senescent A375 cells = assay: Peptide efficacy in culture (MTS), senescent cells; type: cell-based, human
Experimental: Cell lines were treated with chemotherapy, doxorubicin (Sigma, Cat. No. 2252) to induce senescence (200 nM for HCT116, 100 nM for B16-F10 and MCF7, 50 nM for SW480 and DLD-1, 40 nM for A375-Luc/iRFP and MCF10a). MCF7 cells were treated with CDK4/6 inhibitor, palbociclib (Selleck Chemicals: S1116) to induce senescence (5 µM). A375 cells were treated with Braf inhibitor, Dabrafenib (Selleck Chemicals: S2807), to induce senescence (10 µM). Peptide efficacy experiments were performed by seeding 10,000 – 20,000 cells in a 96-well plate. The cells were given doxorubicin twice to make the cells senescent. After removal of doxorubicin, the plate was treated with varying concentrations of peptide. The peptide was replenished daily for two days. Cellular proliferation was quantified using the Promega CellTiter 96™ AQueous One Solution Cell Proliferation Assay (MTS) after 2 hours according to the manufacturer's protocol (Promega, G3581). To control for the charge of ES2, ProteoJuice (Millipore Sigma, 71281) was used to deliver ES2 using the manufacturers protocol, except 50 µL of 2 mM ES2 was mixed with 25 µL of ProteoJuice. Varying concentrations of the mixture were administered to A375 cells along with a control of only ProteoJuice.

TP53 = molecular target: T1, TP53 (Homo sapiens, UniProt P04637); assay: Bio-layer Interferometry, TP53; type: binding; details: BLI
T1 construct: purchased Millipore Sigma Aldrich 23-034
T1 sequence (P04637 whole entry): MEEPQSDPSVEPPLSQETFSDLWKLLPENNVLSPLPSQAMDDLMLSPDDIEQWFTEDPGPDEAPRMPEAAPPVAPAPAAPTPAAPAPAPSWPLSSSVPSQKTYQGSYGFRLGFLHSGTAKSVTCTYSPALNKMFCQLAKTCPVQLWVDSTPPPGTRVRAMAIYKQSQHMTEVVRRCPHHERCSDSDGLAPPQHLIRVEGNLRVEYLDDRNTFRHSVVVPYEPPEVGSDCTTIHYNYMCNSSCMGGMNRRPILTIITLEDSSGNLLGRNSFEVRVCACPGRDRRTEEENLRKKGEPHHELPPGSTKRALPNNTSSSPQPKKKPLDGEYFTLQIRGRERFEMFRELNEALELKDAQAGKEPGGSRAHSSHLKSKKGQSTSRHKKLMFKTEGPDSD
Experimental: Bio-layer Interferometry (BLI) measurements were performed on a ForteBio Octet RED384 instrument (Molecular Devices) using ForteBio Data Acquisition software 9.0 and ForteBio biosensors (Molecular Devices) according to the manufacturer's instructions. Kinetic assays were carried out at 30°C using settings of Standard Kinetics Acquisition rate (5.0 Hz, averaging by 20) at a sample plate shake speed of 1,000 rpm. Streptavidin sensors (SA) (ForteBio) equilibrated in PBS were mock loaded (no ligand reference sensor) or loaded with 50 nM of N- terminal biotinylated ES2 peptide (New England Peptide, Inc.) with an approximate response of 1 nm. Ligand loaded SA sensors equilibrated in Kinetics buffer (ForteBio) to establish a baseline, were dipped into wells containing 2-fold dilutions of TP53 (Millipore Sigma Aldrich; Cat# 23-034), FOXO4 (OriGene Technologies; Cat# TP760655) or GFP analytes in kinetics buffer, or buffer alone (reference sample). Increasing concentrations of analytes ranging from 6.2 - 200 nM were allowed to associate for 240 secs, followed by 600 sec dissociation step where the TP53/FOXO4-bound sensors were washed with kinetics buffer. Binding curves were analysed using ForteBio Data Analysis HT 10.0 evaluation software. To control for background signal and non-specific binding, raw experimental data were processed by subtracting reference biosensor and reference sample (no ligand). Processed data from at least six different concentrations of analyte binding were globally fit to a 1:1 Langmuir binding model to calculate the association rate constant ka, the dissociation rate constant kd to achieve R^2 > 0.90. Equilibrium dissociation constants KD which defines the strength of the interaction or affinity was calculated as the kinetic dissociation rate constant divided by the kinetic association rate constant.

FOXO4 foci = assay: Immunofluorescence / quantitative imaging of FOXO4 foci; type: cell-based, human
Experimental: For all immunofluorescence experiments, cells were plated in 96-well plates (Cellvis P96-1.5P). At the end of each experiment, cells were washed once with PBS and then fixed with 4% paraformaldehyde for 10 minutes at room temperature. For experiments with caspase-3/7 staining, the Caspase-3/7 reagent (Thermo Scientific Cat# C10723) was added to live cells for 30 minutes prior to fixation. Fixed cells were washed with PBS and then permeabilized with ice-cold methanol at 4°C for 10 minutes. Cells were washed with PBS and then blocked for 30 minutes with 1% Bovine Serum Albumin (BSA) in PBS. […]
Quantitative imaging was performed as described with the following exceptions. […] Quantification of fluorescence intensities was performed using CellProfiler. Briefly, the DAPI staining was used to create a nuclear mask, and fluorescence intensities of the stained markers (FOXO4, CDKN2A, CDKN1A, and TP53) and FOXO4 foci were measured within the nuclear mask. DAPI fluorescence intensity was also quantified and used for DNA content measurements. […]

Q: Which cell death (senescent A375 cells; A375 cells, ProteoJuice control experiment, highest concentration) does the source give for “PRKGGRRRRAWGRRRRRRRRRRRRRRAPRKRLTLA [ES2]” here?
A: 80%

Q: And the “effect of delivery with ProteoJuice on senolytic activity” value (senescent A375 cells; ES2 delivered with ProteoJuice vs ES2 alone, senescent A375 cells, n=5)?
A: had no effect on viability in senescent cells compared to ES2 alone; also recorded: no difference in senolytic activity

Q: And the IC50 (senescent A375 cells; doxorubicin (40 nM)-induced senescent A375 cells, peptide replenished daily for two days, MTS, best fit polynomial, read-out: IC50^sen, concentration to kill 50% of senescent cells)?
A: ~7 µM

Q: What about the “senolytic activity (in words)” value (senescent A375 cells; senescent vs dividing A375 cells) of the same sequence?
A: highest senolytic activity

Q: What about the kon (TP53; 1:1 Langmuir binding model, read-out: association rate ka) of the same sequence?
A: 38000 M⁻¹ s⁻¹

Q: And the kd (TP53; biotinylated ES2 immobilized on streptavidin sensors, analyte 6.25-200 nM, 30°C, global 1:1 Langmuir fit)?
A: 8.7e-05 ± 6.3e-07 s⁻¹

Q: What about the kon (TP53; biotinylated ES2 immobilized on streptavidin sensors, analyte 6.25-200 nM, 30°C, global 1:1 Langmuir fit, read-out: ka) of the same sequence?
A: 38000 M⁻¹ s⁻¹

Q: And the Kd (TP53; biotinylated ES2 immobilized on streptavidin sensors, analyte 6.25-200 nM, 30°C, kd/ka)?
A: 0.0023 ± 2e-05 µM

Q: And the “concentration at which accumulation, co-localization with FOXO4 and disruption of focus formation observed” value (FOXO4 foci; BODIPY-labelled ES2, A375 cells, 2 h)?
A: ≥ 8 µM

Q: And the “FOXO4 foci after ES2 addition” value (FOXO4 foci; senescent A375 cells, ES2 8 µM for 4 h)?
A: caused a loss of FOXO4 foci
